Assay results published in patent US20110237677A1, “Inhibitors” (The University of Nottingham, priority 2008, published 2011).

How the values were obtained:
[1] = tested on: Myometrial smooth muscle cells; assay: Calcium mobilisation assay, oxytocin stimulated; assay type: cell-based, human; details: for effect on maximal calcium mobilisation: incubation with 10^−6M inhibitor, oxytocin stimulated; for Emax, maximal calcium mobilisation on oxytocin stimulation: pre-incubation for 10 minutes with 10^−6M inhibitor, FlexStation fluorescence
Description: Myometrial smooth muscle cells were grown in DMEM (Dulbecco's Modified Eagle Medium; Sigma-Aldrich) supplemented with 10% fetal calf serum, L-glutamine and 0.2% pen/strep at 37° C. 5% CO2, following dissociation in 2 mg/ml collagenase (Sigma-Aldrich). Once confluent cells were plated on black-walled flat-bottomed sterile 96-well plates (Costar) at a concentration of 10^5 cells/ml and in the same media makeup and again grown to confluence. Once confluent, cells were incubated in 100 μl media/well containing 2.5 mM probenecid (Sigma-Aldrich), 2.3 μM Fluo-4 (invitrogen) and 0.023% pluronic acid (Invitrogen) for one hour in the dark at 37° C. 5% CO2. Cells were then washed twice with phosphate buffered saline and finally incubated in 100 μl/well PSS (Chanrachakul, Broughton-Pipkin et al., Am J Obstet Gynecol 192(2): 458-63, 2005) containing 2.5 mM probenecid with or without 10^−6 mol/L cystamine, MDC or cysteamine for 10 minutes. Fluorescent readout was then recorded on FlexStation ([…]) over a 200 second period with oxytocin addition at 15 seconds (10^−11 to 10^−5 mol/L) and ionomycin, to measure maximal potential response, at 150 seconds (10^−6 mol/L; Sigma-Aldrich).

myometrial strips [2] = assay: Isometric tension recording, bradykinin-induced contractions of myometrial strips; assay type: cell-based, human; details: bradykinin 10^−8M; compared to control strips
Source text: (§1) Longitudinal myometrial strips were mounted in an organ bath and contractile activity recorded as a measure of tensile force as previously described (Chanrachakul, Broughton-Pipkin et al., Am J Obstet Gynecol 192(2): 458-63, 2005). Myometrial contractions were initially stimulated by addition of oxytocin, bradykinin or phenylephrine (Sigma-Aldrich; 10^−10 mol/L, 10^−8 mol/L, 10^−8 mol/L respectively). Once rhythmic contractions had been achieved cumulative additions of cystamine (Sigma-Aldrich; 10^−8 to 10^−2 mol/L), mono-dansylcadaverine (MDC) (Sigma-Aldrich; 10^−8 to 10^−4 mol/L), cysteamine (Sigma-Aldrich; 10^−9 to 10^−2 mol/L), putrescine (Sigma-Aldrich; 10^−8 to 10^−4 mol/L) were added at 25 minute intervals. Contractile activity was determine by activity integral measured from 20 minutes time periods for each drug addition and analysed along with time-matched control myometrial strips under the same conditions but with vehicle additions (physiological salt solution).

myometrial strips [3] = assay: Isometric tension recording, phenylephrine-induced contractions of myometrial strips; assay type: cell-based, human; details: phenylephrine 10^−8M; compared to control strips
Source text: as §1

myometrial strips [4] = assay: Isometric tension recording, spontaneous contractions of myometrial strips; assay type: cell-based, human; details: 2 g tension, organ bath; dose-dependent
Description: FIG. 9 Diagrammatic representations showing that spontaneous contractions in myometrial strips are inhibited by cystamine (n=4), cysteamine (n=3) and MDC (n=2) in a dose-dependent manner. Control strips are shown with unbroken line (n=2). Tissue is used 24 hours following elective caesarean section and contractions are allowed to spontaneously initiate under 2 g tension and in a temperature controlled and oxygenated organ bath.
as §1

human myometrial tissue = assay: Isometric tension recording, oxytocin-induced contractions of myometrial strips; assay type: cell-based; details: for EC50: Homo sapiens, inhibition of contractions stimulated with 10^−10M oxytocin, pooled experiments, cumulative additions, tissue 24 hours after elective caesarean; for effect on oxytocin-induced contractions: dose-dependent, 10^−10M oxytocin; for oxytocin-induced contractions after removal of the inhibitor by washing: washing with physiological salt solution, re-stimulation with oxytocin
Source text: as §1

Compound	effect on maximal calcium mobilisation [1]	Emax, maximal calcium mobilisation on oxytocin stimulation [1]	effect on bradykinin induced contractions (myometrial strips [2])	effect on phenylephrine induced contractions (myometrial strips [3])	effect on spontaneous contractions (myometrial strips [4])	EC50 (human myometrial tissue)	contractility, % of untreated control myometrium (human myometrial tissue; MDC 10^−4M, contractions stimulated with 10^−10M oxytocin)	effect on oxytocin-induced contractions (human myometrial tissue)	oxytocin-induced contractions after removal of the inhibitor by washing (human myometrial tissue)
CN(C)c1cccc2c(S(=O)(=O)NCCCCCN)cccc12 [MDC, Monodansylcadaverine]	significantly reduced	81.45	inhibited in a dose dependent manner	inhibited in a dose dependent manner	inhibited	22 µM	17.8%±6.2	inhibited	return to control levels
NCCSSCCN [cystamine]	significantly reduced	87.67	inhibited in a dose dependent manner	inhibited in a dose dependent manner	inhibited	1310 µM	–	inhibited	return to control levels
NCCS [cysteamine]	significantly reduced	98.95	–	–	inhibited	1.63 µM	–	inhibited	began to return to control levels
NCCCCN [putrescine]	–	–	–	–	–	56.6 µM	–	inhibited	–
